Assays:
Assay in all cases: biochemical
[1] = target: T1, panel of 374 wild-type kinases (Homo sapiens, UniProt O95747); settings: read-out: % Enzyme Activity (relative to DMSO controls), OSR1/OXSR1
T1 construct: purchased Reaction Biology Corporation

[2] = target: T2, panel of 374 wild-type kinases (Homo sapiens, UniProt Q8TD19); settings: read-out: % Enzyme Activity (relative to DMSO controls), NEK9
T2 construct: purchased Reaction Biology Corporation
T2 sequence (Q8TD19 1-979): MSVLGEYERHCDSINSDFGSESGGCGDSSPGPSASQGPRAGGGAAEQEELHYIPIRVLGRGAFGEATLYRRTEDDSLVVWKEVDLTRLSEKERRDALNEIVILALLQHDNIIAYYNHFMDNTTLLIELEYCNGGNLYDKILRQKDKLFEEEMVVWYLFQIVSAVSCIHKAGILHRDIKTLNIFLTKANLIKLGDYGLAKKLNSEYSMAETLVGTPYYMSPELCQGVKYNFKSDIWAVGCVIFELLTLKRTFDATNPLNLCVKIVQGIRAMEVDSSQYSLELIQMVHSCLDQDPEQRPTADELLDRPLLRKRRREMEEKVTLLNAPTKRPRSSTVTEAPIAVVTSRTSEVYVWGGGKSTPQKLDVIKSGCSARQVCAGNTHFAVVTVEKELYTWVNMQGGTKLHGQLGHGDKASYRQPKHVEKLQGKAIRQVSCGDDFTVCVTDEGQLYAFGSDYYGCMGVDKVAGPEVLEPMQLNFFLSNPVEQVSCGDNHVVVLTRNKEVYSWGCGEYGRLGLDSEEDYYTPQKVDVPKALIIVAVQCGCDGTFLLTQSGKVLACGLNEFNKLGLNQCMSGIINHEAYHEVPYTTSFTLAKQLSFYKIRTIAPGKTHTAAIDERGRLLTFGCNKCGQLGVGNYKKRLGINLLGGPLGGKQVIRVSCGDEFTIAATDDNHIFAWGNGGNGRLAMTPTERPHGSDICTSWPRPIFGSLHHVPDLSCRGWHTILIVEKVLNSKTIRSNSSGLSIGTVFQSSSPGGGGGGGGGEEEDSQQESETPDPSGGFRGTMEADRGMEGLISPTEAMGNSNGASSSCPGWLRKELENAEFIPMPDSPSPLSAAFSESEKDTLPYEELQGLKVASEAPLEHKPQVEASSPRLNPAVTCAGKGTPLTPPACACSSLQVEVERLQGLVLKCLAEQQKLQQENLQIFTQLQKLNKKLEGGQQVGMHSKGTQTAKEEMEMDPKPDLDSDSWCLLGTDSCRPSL

[3] = target: T3, panel of 374 wild-type kinases (Homo sapiens, UniProt O15530); settings: read-out: % Enzyme Activity (relative to DMSO controls), kinase PDK1/PDPK1
T3 construct: purchased Reaction Biology Corporation
T3 sequence (O15530 1-556): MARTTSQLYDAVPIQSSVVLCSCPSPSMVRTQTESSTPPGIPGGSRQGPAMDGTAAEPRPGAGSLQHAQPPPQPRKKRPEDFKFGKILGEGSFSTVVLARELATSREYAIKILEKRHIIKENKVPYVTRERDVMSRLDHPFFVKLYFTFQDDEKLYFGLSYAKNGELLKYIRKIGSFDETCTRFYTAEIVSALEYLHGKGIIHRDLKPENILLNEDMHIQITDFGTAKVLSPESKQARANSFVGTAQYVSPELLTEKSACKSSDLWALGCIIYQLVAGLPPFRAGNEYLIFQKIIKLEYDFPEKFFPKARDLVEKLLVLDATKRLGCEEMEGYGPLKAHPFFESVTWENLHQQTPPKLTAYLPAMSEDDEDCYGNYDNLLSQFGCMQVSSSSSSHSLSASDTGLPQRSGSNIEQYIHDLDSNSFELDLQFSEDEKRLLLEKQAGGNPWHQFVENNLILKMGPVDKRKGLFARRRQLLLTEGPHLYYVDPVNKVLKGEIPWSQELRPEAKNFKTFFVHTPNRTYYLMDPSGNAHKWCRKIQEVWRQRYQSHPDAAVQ

[4] = target: T4, panel of 374 wild-type kinases (Homo sapiens, UniProt Q13873); settings: read-out: % Enzyme Activity (relative to DMSO controls), BMPR2
T4 construct: purchased Reaction Biology Corporation
T4 sequence (Q13873 27-1038): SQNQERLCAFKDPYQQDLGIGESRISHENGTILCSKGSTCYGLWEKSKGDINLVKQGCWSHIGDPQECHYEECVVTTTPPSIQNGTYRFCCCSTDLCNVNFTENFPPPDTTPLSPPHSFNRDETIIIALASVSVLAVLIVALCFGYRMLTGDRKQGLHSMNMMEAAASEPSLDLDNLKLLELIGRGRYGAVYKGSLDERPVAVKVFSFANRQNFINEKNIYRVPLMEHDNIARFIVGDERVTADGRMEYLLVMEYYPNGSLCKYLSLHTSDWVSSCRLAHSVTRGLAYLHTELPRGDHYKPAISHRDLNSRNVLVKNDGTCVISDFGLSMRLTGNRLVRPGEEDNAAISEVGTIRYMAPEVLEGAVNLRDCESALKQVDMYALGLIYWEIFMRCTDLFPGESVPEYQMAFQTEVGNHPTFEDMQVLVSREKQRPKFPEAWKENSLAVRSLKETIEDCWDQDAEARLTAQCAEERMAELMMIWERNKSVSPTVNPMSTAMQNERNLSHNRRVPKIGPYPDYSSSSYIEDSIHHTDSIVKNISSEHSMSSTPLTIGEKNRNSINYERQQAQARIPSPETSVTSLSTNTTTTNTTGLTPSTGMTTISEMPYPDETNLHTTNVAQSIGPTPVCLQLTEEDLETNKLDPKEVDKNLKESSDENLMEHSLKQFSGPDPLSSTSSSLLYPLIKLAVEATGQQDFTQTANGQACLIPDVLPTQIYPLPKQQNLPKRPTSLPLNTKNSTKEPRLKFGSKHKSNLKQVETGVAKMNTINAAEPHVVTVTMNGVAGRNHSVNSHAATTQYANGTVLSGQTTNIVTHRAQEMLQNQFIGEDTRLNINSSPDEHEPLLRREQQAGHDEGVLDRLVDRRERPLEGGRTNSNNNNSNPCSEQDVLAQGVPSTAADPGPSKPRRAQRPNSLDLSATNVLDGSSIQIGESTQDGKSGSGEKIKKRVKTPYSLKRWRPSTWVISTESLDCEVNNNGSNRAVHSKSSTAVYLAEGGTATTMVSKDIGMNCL

T1 sequence (O95747 whole entry): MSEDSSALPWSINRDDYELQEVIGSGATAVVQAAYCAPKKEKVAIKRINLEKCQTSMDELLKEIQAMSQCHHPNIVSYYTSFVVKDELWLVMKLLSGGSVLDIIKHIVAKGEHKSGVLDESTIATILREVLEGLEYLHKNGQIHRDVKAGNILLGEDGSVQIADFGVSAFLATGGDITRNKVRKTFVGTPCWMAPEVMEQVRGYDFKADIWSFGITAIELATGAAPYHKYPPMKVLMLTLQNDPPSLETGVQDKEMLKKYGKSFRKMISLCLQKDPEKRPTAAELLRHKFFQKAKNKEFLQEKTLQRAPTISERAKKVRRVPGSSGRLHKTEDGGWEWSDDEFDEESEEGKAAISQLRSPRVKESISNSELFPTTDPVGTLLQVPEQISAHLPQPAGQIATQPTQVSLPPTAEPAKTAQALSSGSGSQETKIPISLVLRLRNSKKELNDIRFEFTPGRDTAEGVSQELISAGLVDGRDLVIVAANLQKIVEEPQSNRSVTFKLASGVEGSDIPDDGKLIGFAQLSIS

**Q.** What does the source list for O=C(Nc1cnn(-c2csc(C(=O)NC3COC3)c2)c1)Nc1ccccc1Cl [Compound 17, 4-(4-(3-(2-chlorophenyl)ureido)-1H-pyrazol-1-yl)-N-(oxetan-3-yl)thiophene-2-carboxamide]?
**A.** remaining activity at 5 µM [1]: 92.6%; remaining activity at 5 µM [2]: 104%; remaining activity at 5 µM [3]: 101%; remaining activity at 5 µM [4]: 110%

**Q.** How did the remaining activity at 10 µM ([1]; 10 uM) turn out when Cc1sc(C(=O)NC2COC2)cc1-n1cc(NC(=O)Nc2c(F)cccc2Cl)cn1 [Compound 27, 4-(4-(3-(2-chloro-6-fluorophenyl)ureido)-1H-pyrazol-1-yl)-5-methyl-N-(oxetan-3-yl)thiophene-2-carboxamide] was run?
**A.** Its remaining activity at 10 µM is 127%.

**Q.** What about the remaining activity at 10 µM ([2]; 10 uM) of the same molecule?
**A.** Its remaining activity at 10 µM is 111%.

**Q.** What about the remaining activity at 10 µM ([3]; 10 uM) of the same molecule?
**A.** The remaining activity at 10 µM was 99.2%.

**Q.** And the remaining activity at 10 µM ([4]; 10 uM)?
**A.** The remaining activity at 10 µM was 84.5%.

**Q.** With O=C(Nc1cnn(-c2csc(C(=O)NC3COC3)c2)c1)Nc1c(F)cccc1Cl [Compound 25, 4-(4-(3-(2-chloro-6-fluorophenyl)ureido)-1H-pyrazol-1-yl)-N-(oxetan-3-yl)thiophene-2-carboxamide] as the molecule, how does the remaining activity at 5 µM [1] read?
**A.** The remaining activity at 5 µM was 96.5%.

**Q.** And the remaining activity at 5 µM [2]?
**A.** The remaining activity at 5 µM was 88.4%.

**Q.** And the remaining activity at 5 µM [3]?
**A.** The remaining activity at 5 µM was 99.6%.

**Q.** And the remaining activity at 5 µM [4]?
**A.** Its remaining activity at 5 µM is 77.2%.
